# Measurements from patent US10597388B2, “Pyridazinone herbicides” (FMC CORPORATION, priority 2014, dated 2020).
# Assays:
# Assay type in all cases: in vivo
# [1] = system: soybean (Glycine max); experiment: Test C greenhouse herbicide test, pre- and postemergence
# Procedure, shortened: (§1)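 Each species was treated both before emergence, in a loam–sand soil mix, and after emergence, as 1- to 4-leaf seedlings in peat-based potting medium. Plants stayed in the greenhouse 13 to 15 d, then were scored from 0 (no effect) to 100 (complete control) relative to controls.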
# [2] = system: ragweed (common ragweed, Ambrosia elatior); experiment: as above
# Procedure, shortened: as §1
# [3] = system: pigweed (Amaranthus retroflexus); experiment: as above
# Procedure, shortened: as §1
# [4] = system: ryegrass, Italian (Italian ryegrass, Lolium multiflorum); experiment: as above
# Procedure, shortened: as §1
# [5] = system: blackgrass (Alopecurus myosuroides); experiment: as above
# Procedure, shortened: as §1
# [6] = system: foxtail, giant (giant foxtail, Setaria faberii); experiment: as above
# Procedure, shortened: as §1
# [7] = system: wheat (winter wheat, Triticum aestivum); experiment: as above
# Procedure, shortened: as §1
# [8] = system: waterhemp (common waterhemp, Amaranthus rudis); experiment: as above
# Procedure, shortened: as §1
# [9] = system: johnsongrass (Sorghum halepense); experiment: as above
# Procedure, shortened: as §1
# [10] = system: barnyardgrass (Echinochloa crus-galli); experiment: as above
# Procedure, shortened: as §1
# [11] = system: corn (Zea mays); experiment: as above
# Procedure, shortened: as §1
# [12] = system: lambsquarters (Chenopodium album); experiment: as above
# Procedure, shortened: as §1
# [13] = system: crabgrass, large (large crabgrass, Digitaria sanguinalis); experiment: as above
# Procedure, shortened: as §1
# [14] = system: morningglory (Ipomoea coccinea); experiment: as above
# Procedure, shortened: as §1
# [15] = system: kochia (Kochia scoparia); experiment: Test C greenhouse herbicide test, postemergence; conditions: for Plant response rating, Kochia: Postemergence
# Procedure, shortened: (§2)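 Plants grown in potting mix of peat moss, vermiculite, wetting agent and starter nutrients were sprayed postemergence at 2 to 18 cm height (1- to 4-leaf stage). After 13 to 15 d in the greenhouse, injury was visually rated against untreated controls on a 0–100 scale (0 no effect, 100 complete control).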
# [16] = system: oat, wild (wild oat, Avena fatua); experiment: Test C greenhouse herbicide test, postemergence; conditions: for Plant response rating, Oat, Wild: Postemergence
# Procedure, shortened: as §2
# [17] = Postemergence, 125 g ai/ha, scale 0 to 100, 0 is no effect, 100 is complete control
# [18] = Postemergence, 250 g ai/ha, scale 0 to 100, 0 no effect, 100 complete control, 13 to 15 d
# [19] = Preemergence, 31 g ai/ha, scale 0 to 100, 0 is no effect, 100 is complete control
# [20] = Preemergence, 62 g ai/ha, scale 0 to 100, 0 is no effect, 100 is complete control
# [21] = Preemergence, 125 g ai/ha, scale 0 to 100, 0 is no effect, 100 is complete control
# [22] = Preemergence, 250 g ai/ha, scale 0 to 100 (0 no effect, 100 complete control)
# [23] = postemergence, 62 g ai/ha, scale 0 to 100, 0 no effect, 100 complete control
# [24] = Postemergence, 31 g ai/ha, 0 to 100 scale (0 no effect, 100 complete control)
# [25] = 125 g ai/ha, scale 0 to 100, 0 is no effect, 100 is complete control
# [26] = 250 g ai/ha, scale 0 to 100, 0 no effect, 100 complete control, 13 to 15 d
structure (smiles),measurement,setting,value
C#CCOC(=O)Oc1c(C)nn(C)c(=O)c1-c1c(C)sc2ccc(C)cc12 [Compound 87],"Plant response rating, Soybean",[1]; [17],10
same,"Plant response rating, Soybean",[1]; [18],5
same,"Plant response rating, Soybean",[1]; [19],0
same,"Plant response rating, Soybean",[1]; [20],0
same,"Plant response rating, Soybean",[1]; [21],100
same,Soybean plant response rating,[1]; [22],0
same,Soybean plant response rating,[1]; [23],0
same,"Plant response rating, Ragweed",[2]; [17],95
same,"Plant response rating, Ragweed",[2]; [18],100
same,"Plant response rating, Ragweed",[2]; [19],90
same,"Plant response rating, Ragweed",[2]; [20],90
same,"Plant response rating, Ragweed",[2]; [21],95
same,Ragweed plant response rating,[2]; [22],90
same,Ragweed plant response rating,[2]; [23],95
same,"Plant response rating, Pigweed",[3]; [17],90
same,"Plant response rating, Pigweed",[3]; [18],98
same,"Plant response rating, Pigweed",[3]; [19],75
same,"Plant response rating, Pigweed",[3]; [20],100
same,"Plant response rating, Pigweed",[3]; [21],100
same,Pigweed plant response rating,[3]; [22],100
same,Pigweed plant response rating,[3]; [23],90
same,"Plant response rating, Ryegrass, Italian",[4]; [17],85
same,"Plant response rating, Ryegrass, Italian",[4]; [18],85
same,"Plant response rating, Ryegrass, Italian",[4]; [19],35
same,"Plant response rating, Ryegrass, Italian",[4]; [20],90
same,"Plant response rating, Ryegrass, Italian",[4]; [21],90
same,"Ryegrass, Italian plant response rating",[4]; [22],90
same,"Ryegrass, Italian plant response rating",[4]; [23],80
same,Blackgrass plant response rating,[5]; [24],10
same,"Plant response rating, Blackgrass",[5]; [17],60
same,"Plant response rating, Blackgrass",[5]; [18],65
same,"Plant response rating, Blackgrass",[5]; [19],40
same,"Plant response rating, Blackgrass",[5]; [20],30
same,"Plant response rating, Blackgrass",[5]; [21],85
same,Blackgrass plant response rating,[5]; [22],90
same,Blackgrass plant response rating,[5]; [23],35
same,"Plant response rating, Foxtail, Giant",[6]; [17],75
same,"Plant response rating, Foxtail, Giant",[6]; [18],85
same,"Plant response rating, Foxtail, Giant",[6]; [19],70
same,"Plant response rating, Foxtail, Giant",[6]; [20],80
same,"Plant response rating, Foxtail, Giant",[6]; [21],90
same,"Foxtail, Giant plant response rating",[6]; [22],95
same,"Foxtail, Giant plant response rating",[6]; [23],55
same,"Plant response rating, Wheat",[7]; [17],0
same,"Plant response rating, Wheat",[7]; [18],0
same,"Plant response rating, Wheat",[7]; [19],0
same,"Plant response rating, Wheat",[7]; [20],0
same,"Plant response rating, Wheat",[7]; [21],0
same,Wheat plant response rating,[7]; [22],0
same,Wheat plant response rating,[7]; [23],0
same,"Plant response rating, Waterhemp",[8]; [17],90
same,"Plant response rating, Waterhemp",[8]; [18],90
same,"Plant response rating, Waterhemp",[8]; [19],100
same,"Plant response rating, Waterhemp",[8]; [20],100
same,"Plant response rating, Waterhemp",[8]; [21],100
same,Waterhemp plant response rating,[8]; [22],100
same,Waterhemp plant response rating,[8]; [23],80
same,"Plant response rating, Johnsongrass",[9]; [17],5
same,"Plant response rating, Johnsongrass",[9]; [18],10
same,"Plant response rating, Johnsongrass",[9]; [19],5
same,"Plant response rating, Johnsongrass",[9]; [20],25
same,"Plant response rating, Johnsongrass",[9]; [21],40
same,Johnsongrass plant response rating,[9]; [22],40
same,Johnsongrass plant response rating,[9]; [23],5
same,Barnyardgrass plant response rating,[10]; [24],25
same,"Plant response rating, Barnyardgrass",[10]; [17],35
same,"Plant response rating, Barnyardgrass",[10]; [18],45
same,"Plant response rating, Barnyardgrass",[10]; [19],5
same,"Plant response rating, Barnyardgrass",[10]; [20],35
same,"Plant response rating, Barnyardgrass",[10]; [21],65
same,Barnyardgrass plant response rating,[10]; [22],85
same,Barnyardgrass plant response rating,[10]; [23],25
same,Corn plant response rating,[11]; [24],5
same,"Plant response rating, Corn",[11]; [17],30
same,"Plant response rating, Corn",[11]; [18],5
same,"Plant response rating, Corn",[11]; [19],0
same,"Plant response rating, Corn",[11]; [20],10
same,"Plant response rating, Corn",[11]; [21],0
same,Corn plant response rating,[11]; [22],10
same,Corn plant response rating,[11]; [23],5
same,"Plant response rating, Lambsquarters",[12]; [17],98
same,"Plant response rating, Lambsquarters",[12]; [18],100
same,"Plant response rating, Lambsquarters",[12]; [19],55
same,"Plant response rating, Lambsquarters",[12]; [20],80
same,"Plant response rating, Lambsquarters",[12]; [21],85
same,Lambsquarters plant response rating,[12]; [22],100
same,Lambsquarters plant response rating,[12]; [23],98
same,"Plant response rating, Crabgrass, Large",[13]; [17],25
same,"Plant response rating, Crabgrass, Large",[13]; [18],35
same,"Plant response rating, Crabgrass, Large",[13]; [19],10
same,"Plant response rating, Crabgrass, Large",[13]; [20],65
same,"Plant response rating, Crabgrass, Large",[13]; [21],80
same,"Crabgrass, Large plant response rating",[13]; [22],85
same,"Crabgrass, Large plant response rating",[13]; [23],10
same,"Plant response rating, Morningglory",[14]; [17],100
same,"Plant response rating, Morningglory",[14]; [18],100
same,"Plant response rating, Morningglory",[14]; [19],85
same,"Plant response rating, Morningglory",[14]; [20],90
same,"Plant response rating, Morningglory",[14]; [21],95
same,Morningglory plant response rating,[14]; [22],95
same,Morningglory plant response rating,[14]; [23],98
same,"Plant response rating, Kochia",[15]; [25],90
same,"Plant response rating, Kochia",[15]; [26],95
same,Kochia plant response rating,[15]; [23],90
same,"Plant response rating, Oat, Wild",[16]; [25],85
same,"Plant response rating, Oat, Wild",[16]; [26],90
same,"Oat, Wild plant response rating",[16]; [23],90
